Data set [1] deals with Plasmodium falciparum. The data set can be described thus: NOVARTIS: Inhibition of Plasmodium falciparum 3D7 (drug-susceptible) proliferation in erythrocyte-based infection assay. The conditions noted are these: Plasmodium falciparum, 3D7. Type of data set: functional, organism-based.
The test system of data set [2] is Plasmodium falciparum. The data set can be described thus: NOVARTIS: Inhibition of Plasmodium falciparum W2 (drug-resistant) proliferation in erythrocyte-based infection assay. Type of data set: functional, organism-based. As to conditions: Plasmodium falciparum, W2; read-out: EC50.
A short description of data set [3]: NOVARTIS: Cytotoxicity against human hepatocellular carcinoma cell line (Huh7). Format: toxicity, cell-based, Huh-7. As to conditions: Huh7 cells (hepatocellular carcinoma cell line).

Take `c1ccc(Nc2nc(-c3ccccn3)cs2)nc1`: the concentration giving a half-maximal response (EC50) with Plasmodium falciparum [1] was determined as 114 nM; with Plasmodium falciparum [2], 58.5 nM. The molecule also registered a CC50 in data set [3] of 18600 nM.
Taken in the same sequence, the figures for `CCC(c1nc2ccccc2c(=O)n1-c1ccccc1OC)N(CCc1ccccc1)C(=O)c1cccc(OC)c1` (configuration not stated) were 1080 nM, 31.1 nM and more than 10000 nM.
Taken in the same sequence, the figures for `CCOC(=O)c1c(CNc2ccncc2)n(C)c2cc(Br)c(OC(C)=O)cc12` were 257 nM, 310 nM and more than 100000 nM.
Taken in the same sequence, the figures for `COc1cc(OC)c(NC(=O)C2c3ccccc3C(=O)N(C)C2c2cccs2)cc1Cl` (configuration not stated) were 320 nM, 310 nM and more than 100000 nM.
On to `CN1CCc2c(sc3nc(SCc4ccc(F)cc4)n(-c4ccccc4)c(=O)c23)C1`, for which the EC50 in the data set on Plasmodium falciparum [1] worked out at 498 nM; with Plasmodium falciparum [2] it was 320 nM. In data set [3], this molecule displayed a CC50 of more than 100000 nM.
In the case of `O=C(NCc1nnc(SCC2CCCO2)n1Cc1ccccc1)c1cccc2ccccc12` (configuration not stated), the results for the EC50 with Plasmodium falciparum [1] and in the data set with Plasmodium falciparum [2] were 1870 nM and less than 26.5 nM, respectively. Further, half-maximal cytotoxicity in data set [3] (CC50) was put at 8280 nM.
For `CCOC(=O)c1c(CC)nc(-c2ccccc2)nc1C(=O)N1CCC(C)CC1`, in that order: more than 1250 nM, less than 13 nM and 4060 nM.
For `Cc1nc(N2CCCCC2)c2c(C)c(C(=O)N3CCN(c4cccc(Cl)c4)CC3)sc2n1`, in that order: more than 12500 nM, 319 nM and more than 100000 nM.
Taken in the same sequence, the figures for `CCc1ccc(NC(=O)c2ccc(F)c(S(=O)(=O)NC3CCCC(C)C3C)c2)cc1` (configuration not stated) were 1350 nM, 216 nM and 66000 nM.
Turning to `CC1(CNCc2ccccc2O)C2CC3CC(C2)CC1C3` (configuration not stated), the EC50 with Plasmodium falciparum [1] amounted to 143 nM; in the data set with Plasmodium falciparum [2], 32.6 nM. Further, in data set [3], the 50% cytotoxic concentration (CC50) is more than 10000 nM.
Taken in the same sequence, the figures for `CCOC(=O)c1c(CNCCN(CC)CC)n(C)c2cc(Br)c(OC(C)=O)cc12` were 833 nM, 309 nM and more than 100000 nM.
Taken in the same sequence, the figures for `Cc1ccc(-c2cn3c([n+]2-c2ccccc2)SCC3)cc1` were 427 nM, 309 nM and more than 100000 nM.
With `CC(C)CCN(CCC(C)C)CC(O)Cn1c2ccc(Br)cc2c2cc(Br)ccc21` (configuration not stated), the values for the concentration giving a half-maximal response (EC50) in the data set with Plasmodium falciparum [1] and in the data set on Plasmodium falciparum [2] were 1490 nM and 309 nM, respectively. Moreover, the CC50 in data set [3] was more than 100000 nM.
Taken in the same sequence, the figures for `Cc1ccc2cc3c(N)c4c(C)ccc(C)c4nc3nc2c1` were 431 nM, 308 nM and more than 100000 nM.
With `O=S(=O)(NCCNc1ncnc2scc(-c3ccccc3)c12)c1ccc(Cl)c(Cl)c1`, the values for the EC50 in the data set with Plasmodium falciparum [1] and in the data set with Plasmodium falciparum [2] were 290 nM and 307 nM, respectively. In addition, the CC50 in data set [3] is more than 100000 nM.
Consider `CC1=C(C(=O)OC(C)C)C(c2ccc(F)cc2)C2=C(CC(c3ccc(Cl)cc3)CC2=O)N1` (configuration not stated), for which the results for the EC50 in the data set on Plasmodium falciparum [1] and with Plasmodium falciparum [2] were 358 nM and 91.3 nM, respectively. Further, the CC50 in data set [3] stood at 29700 nM.
As for `COc1cc(NC(C)CCCN(Cc2ccc(Cl)cc2)C(=O)Nc2ccc(Cl)cc2Cl)c2ncccc2c1` (configuration not stated), the EC50 in the data set on Plasmodium falciparum [1] was 416 nM; with Plasmodium falciparum [2], less than 17.1 nM. The same molecule had a CC50 in data set [3] of 5600 nM.
Taken in the same sequence, the figures for `COc1ccc(/C=C/c2ccc3ccccc3[n+]2C)cc1` were 133 nM, 30.4 nM and more than 10000 nM.
Taken in the same sequence, the figures for `COc1cc(OC)c(NC(=O)C2c3ccccc3C(=O)N(C)C2c2ccc(OC)c(OC)c2)cc1Cl` (configuration not stated) were 983 nM, 328 nM and more than 100000 nM.
For `COc1cc(C=C(C#N)c2nc3ccccc3[nH]2)ccc1OCc1ccc(C)cc1`, in that order: 684 nM, 328 nM and more than 100000 nM.
`O=C(Nc1ccc2c(c1)OCO2)c1cc2cc(C3(O)CCN(CC4CCCCC4)CC3)ccc2o1`: the results for the EC50 in the data set on Plasmodium falciparum [1] and in the data set on Plasmodium falciparum [2] were 442 nM and 311 nM, respectively. For the same molecule, the CC50 in data set [3] is more than 100000 nM.
For `O=C(NC(=S)Nc1ccc(NC(=O)c2cccs2)cc1)c1ccco1`, in that order: 468 nM, 311 nM and more than 100000 nM.
Taken in the same sequence, the figures for `CCCNC1=C(N(C(C)=O)c2ccc(C)cc2)C(=O)c2ccccc2C1=O` were 13 nM, 13.1 nM and 4330 nM.
Taken in the same sequence, the figures for `Brc1ccc(-c2cn3c([n+]2-c2ccccc2)SCC3)cc1` were 335 nM, 303 nM and more than 100000 nM.
As for `CCOC(=O)C1=CN(c2cc(C)ccc2C)C=C(C(=O)OCC)C1c1ccccc1OCC`, the EC50 in the data set with Plasmodium falciparum [1] was 264 nM; with Plasmodium falciparum [2], 328 nM. Besides, in data set [3], the CC50 was more than 100000 nM.
For `CC1CN(C(=O)C(Cl)(Cl)Cl)C(C)CN1C(=O)C(Cl)(Cl)Cl` (configuration not stated), the EC50 with Plasmodium falciparum [1] amounted to 2050 nM; with Plasmodium falciparum [2], 302 nM. Further, the CC50 in data set [3] is more than 100000 nM.
As for `Cc1nc2ncccn2c1-c1csc(Nc2ccccn2)n1`, the EC50 in the data set with Plasmodium falciparum [1] is 189 nM; with Plasmodium falciparum [2], 314 nM. Also, in data set [3], the CC50 was more than 100000 nM.
For `CCCCCSc1scc(-c2ccc(O)c(O)c2)[n+]1C`, the figures for the EC50 in the data set with Plasmodium falciparum [1] and in the data set with Plasmodium falciparum [2] were 254 nM and 313 nM, respectively. This molecule displayed a CC50 in data set [3] of more than 100000 nM.
For `O=C(NCc1n[nH]c(=S)n1-c1ccc(Br)cc1)c1cccc2ccccc12`, in that order: 293 nM, 301 nM and more than 100000 nM.
As to `Cc1cc(C)c2c(c1)OCN(Cc1ccccc1Cl)C2`, the EC50 with Plasmodium falciparum [1] was found to be 192 nM; in the data set on Plasmodium falciparum [2], 300 nM. Further, the CC50 in data set [3] was more than 100000 nM.
Turning to `COc1cc(OC)c(N(C)C(=O)c2cc3c(s2)-c2ccccc2S(=O)(=O)C3)cc1Cl`, the figures for the EC50 with Plasmodium falciparum [1] and in the data set on Plasmodium falciparum [2] were 113 nM and 179 nM, respectively. Moreover, the CC50 in data set [3] was more than 55600 nM.
For `CCOc1ccc(C(=O)N2CCN(Cc3ccccc3)CC2)cc1`, the EC50 in the data set with Plasmodium falciparum [1] is more than 3670 nM; with Plasmodium falciparum [2], 322 nM. Besides, the CC50 in data set [3] was more than 100000 nM.
Taken in the same sequence, the figures for `CCCC(=O)NC(c1cccc([N+](=O)[O-])c1)c1ccc2cccnc2c1O` (configuration not stated) were 320 nM, 125 nM and 38800 nM.
`CCCn1c(SCCNC(=O)/C=C/c2ccccc2)nc(-c2ccccc2)c1-c1ccccc1`: the figures for the EC50 in the data set with Plasmodium falciparum [1] and with Plasmodium falciparum [2] were 557 nM and 29.7 nM, respectively. Also, the CC50 in data set [3] turned out to be 9380 nM.
Taken in the same sequence, the figures for `CC(=O)N(C1=C(N2CCCCCC2)C(=O)c2ccccc2C1=O)C1CCCCC1` were 137 nM, 93.9 nM and 30200 nM.
Regarding `O=C(CSc1nc2cc3c(cc2c(=O)n1Cc1ccco1)OCO3)Nc1cc(C(F)(F)F)ccc1Cl`, the 50% effective concentration (EC50) with Plasmodium falciparum [1] was found to be 247 nM; in the data set on Plasmodium falciparum [2], 326 nM. Besides, the CC50 in data set [3] was more than 100000 nM.
Taken in the same sequence, the figures for `COc1cccc(CNC(=O)[C@@H]2CNC[C@H]2c2ccc(C(F)(F)F)cc2)c1` were 108 nM, 77.5 nM and 23800 nM.
For `COc1ccc2c(Cl)c(C(=O)Nc3cc(C)on3)sc2c1Cl`, in that order: 430 nM, 316 nM and more than 100000 nM.
With `O=C(NNc1ccccc1F)c1c(F)cccc1Cl`, the EC50 in the data set with Plasmodium falciparum [1] was more than 1250 nM; in the data set on Plasmodium falciparum [2] it was less than 31.6 nM. In data set [3], the CC50 is more than 10000 nM.
Taken in the same sequence, the figures for `O=C(COc1ccc(Cl)cc1)Nc1cccc(-c2nc3ncccc3o2)c1` were 1640 nM, 311 nM and more than 100000 nM.
Turning to `O=C(c1c2c(nc3ccccc13)CCC2)N1CCc2ccccc21`, the results for the EC50 in the data set on Plasmodium falciparum [1] and in the data set on Plasmodium falciparum [2] were 1940 nM and less than 36.7 nM, respectively. In addition, the CC50 in data set [3] was more than 11700 nM.
Consider `O=C(NC1CC1)C1CCN(c2cccc3c2C(=O)N(C2CCCCCCC2)C3=O)CC1`, for which the values for the EC50 in the data set with Plasmodium falciparum [1] and in the data set on Plasmodium falciparum [2] were 203 nM and 169 nM, respectively. The molecule further yielded a CC50 in data set [3] of more than 51800 nM.
Taken in the same sequence, the figures for `COC(=O)C1CCN(C(=O)COC(c2ccccc2)c2cccnc2Cl)CC1` (configuration not stated) were more than 1250 nM, less than 7.96 nM and more than 2450 nM.
As for `Cc1ccc(C[n+]2cc(-c3ccc(F)cc3)n3c2CCC3)cc1`, the EC50 in the data set on Plasmodium falciparum [1] stood at 867 nM; with Plasmodium falciparum [2], 321 nM. The molecule further returned a CC50 in data set [3] of more than 100000 nM.
For `COc1ccc(C2=C(c3ccc(OC)cc3)C3(c4ccccc4)C(=O)C2(c2ccccc2)C2C(=O)N(c4ccc(OC)cc4[N+](=O)[O-])C(=O)C23)cc1` (configuration not stated), in that order: 353 nM, 316 nM and more than 100000 nM.
Take `Oc1nc(-c2ccccn2)nc(C(F)(F)F)c1Br`: the EC50 was 490 nM in the data set with Plasmodium falciparum [1] and less than 25.6 nM in the data set on Plasmodium falciparum [2]. The molecule further gave a CC50 in data set [3] of more than 8270 nM.
For `O=C1C(=O)N(Cc2ccccc2[N+](=O)[O-])c2ccccc21`, in that order: 710 nM, 326 nM and more than 100000 nM.
As for `COc1ccc(-n2nc([N+](=O)[O-])c(Nc3ccc([N+](=O)[O-])cc3C)[n+]2[O-])cc1`, the EC50 was determined as 1300 nM in the data set with Plasmodium falciparum [1] and 320 nM in the data set with Plasmodium falciparum [2]. In data set [3], this molecule came in with a CC50 of more than 100000 nM.
For `Cc1cc2nc3ccc(N(C)C)cc3[n+](-c3ccccc3)c2cc1N`, in that order: 156 nM, 31.2 nM and more than 10000 nM.
For `COc1ccc(OC)c(C2CC(=O)C3=C(C2)NC(=O)CC3c2ccc([N+](=O)[O-])cc2)c1` (configuration not stated), in that order: 262 nM, 229 nM and 72200 nM.
Taken in the same sequence, the figures for `O=C1CC(c2ccccc2)CC2=C1C(c1cc(F)ccc1F)Nc1ccccc1N2` (configuration not stated) were 1020 nM, 310 nM and more than 100000 nM.
As to `O=C1[C@@H]2CCCN2C(=O)C(c2ccc(Oc3ccccc3)cc2)N1CCc1ccccn1` (some centres not stated), the EC50 with Plasmodium falciparum [1] was more than 1250 nM; in the data set on Plasmodium falciparum [2] it was less than 30.4 nM. In data set [3], the CC50 is more than 10000 nM.
On to `CCCCCC1CCCc2c1[nH]c1cc(Cl)ccc1c2=O` (configuration not stated), for which the EC50 in the data set with Plasmodium falciparum [1] turned out to be 475 nM; in the data set on Plasmodium falciparum [2], 302 nM. Besides, the CC50 in data set [3] is more than 100000 nM.
For `CC[n+]1c(C=C2C=C(C)CC(C)C2)sc2ccccc21` (configuration not stated), in that order: 326 nM, 300 nM and more than 100000 nM.

Source of the values: ChEMBL document CHEMBL1156829 (Proc Natl Acad Sci U S A, 2008).
